“And” between values parts separate entries of the source, which are not always exact repeats. Equal values may be shown once. “Also recorded” adds a separate entry of the source.
What was measured:
colonic motility [1] = details: rodent models; cited from earlier work
[2] = test system: guinea pig ileum Longitudinal Muscle Myenteric Plexus (LMMP); experiment: Electrical field stimulated contractions in LMMP strips
Method: Male albino guinea pigs (350-450 g) were euthanized by asphyxiation with CO2. A segment of ileum was removed and placed in a dissection bath filled with pre-oxygenated Krebs' solution (118 mM NaCl, 4.6 mM KCl, 1.3 mM NaH2PO4, 1.2 mM MgSO4, 25 mM NaHCO3, 11 mM glucose, and 2.5 mM CaCl2). Longitudinal Muscle Myenteric Plexus (LMMP) strips were prepared as previously described.^26 Electrical field stimulation (EFS) (50 V, 7.5 Hz, unless stated otherwise) was applied through concentric electrodes over longitudinal muscle or L-type stimulating electrodes over circular muscle strips to produce neurogenic contractions/relaxations. Drugs were added in single or cumulative doses depending on the assay to determine their inhibitory effects on the neurogenic responses.

GI transit = details: humans; cited from earlier work
[3] = test system: mouse proximal colon circular muscle; experiment: Colon circular muscle isometric tension recordings, proximal colon
Method: (§1) Mice were euthanized by cervical dislocation. The colon was dissected, flushed of its contents, and trimmed of mesentery. […] The tissues, 0.5 cm in length, were suspended vertically along the axis of the circular muscle with a metal triangle tied to a hook under 1 g of passive tension in 15 mL siliconized organ baths.
(§2) Data are presented as the mean±S.E.M, values of P≤0.05 were considered significant.

[4] = test system: mouse distal colon circular muscle; experiment: Colon circular muscle isometric tension recordings, distal colon
Method: as §1, §2

MOR = MOR (Mus musculus, UniProt P42866); details: relative to DAMGO, NAP data from ref 9b; cited from earlier work
KOR = molecular target: T1, KOR (Homo sapiens, UniProt P41145); details: NAP data from ref 9b, cited from earlier work
T1 construct: expressed in transfected cells; host or cells: CHO cells (membranes)

intestinal transit = experiment: Charcoal meal test for gastrointestinal transit; type: in vivo, mice; details: charcoal gavage, compound alone
Method: Forty-eight hours before testing, mice were placed in cages with raised mesh wire to suspend them above their bedding and prevent ingestion of feces or bedding. The animals were habituated for 24 h in the presence of food and water and then fasted for 24 h with free access to water as previously reported.^24 This time frame was chosen to deplete the intestine and colon of any feces. To maintain caloric intake and to avoid hypoglycemia, mice had access to a sugar water solution consisting of a final concentration of 5% dextrose for the first 8 h of the fasting period. […] At 30 min after the administration of the charcoal meal, the mice were euthanized by cervical dislocation, and the small intestine from the jejunum to the cecum was dissected and placed in cold saline to stop peristalsis. The distance traveled by the leading edge of the charcoal meal was measured relative to the total length of the small intestine, and the percentage of intestinal transit for each animal was calculated as percentage transit (charcoal distance)/(small intestinal length)×100. This is referred to as intestinal transit in the text.

colonic motility [5] = experiment: Colonic bead expulsion assay; type: in vivo, mice; details: morphine 3 mg/kg; naive mice 17 min
Method: Mice were habituated and fasted as described above for the gastrointestinal transit analysis. […] At 20 min post-injection, animals were anesthetized with isoflurane (1-2 min) to insert a single 2-mm glass bead into the distal colon at a distance of 3 cm from the anus. Bead insertion was accomplished using a glass rod with a fire-polished end to avoid tissue damage and marked at 3 cm.^25 After bead insertion, mice were placed in individual cages and the time to bead expulsion was monitored. Animals were monitored for a maximum of 2 h unless bead expulsion occurred sooner.

morphine antinociception = experiment: Warm water tail immersion (tail flick) test; type: in vivo, Swiss Webster mice; details: morphine alone, warm water tail flick
Method: Male Swiss Webster mice (Harlan Laboratories, Indianapolis, Ind.) weighing 25-30 g were housed 5 to a cage in animal care quarters and maintained at […] on a 12 h light-dark cycle. Food and water were available ad libitum. The mice were brought to a test room (22±2° C., 12 h light-dark cycle), marked for identification and allowed 18 h to recover from transport and handling. Protocols and procedures were approved by the Institutional Animal Care and Use Committee (IACUC) at Virginia Commonwealth University Medical Center and comply with the recommendations of the IASP (International Association for the Study of Pain).
The warm water tail-immersion test was performed according to previously described methods using a water bath with the temperature maintained at 56±0.1° C.^20 Briefly, before giving the mice injections, a baseline (control) latency was determined. Only mice with a control reaction time of 2 to 4 s were used. The average baseline latency for these experiments was 3.0±0.1 s. The test latency after drug treatment was assessed at the appropriate time, and a 10 s maximal cutoff time was imposed to prevent tissue damage. Antinociception was quantified according to established procedures as the percentage of maximum possible effect (% MPE), which was calculated as follows: % MPE=[(test latency−control latency)/(10−control latency)]×100.^21 Percentage MPE was calculated for each mouse, using at least six mice per group.
Intracerebroventricular (ICV) injections were performed as described previously.^22 Mice were anesthetized with 2.5% isoflurane and a horizontal incision was made in the scalp. A needle was inserted to a depth of 3 mm into the lateral ventrical (2 mm rostral and 2 mm lateral at a 45° angle from the bregma). At intervals, 5 μL injections of drug or vehicle were made using this guide insertion to the same depth using a needle with a guard in nonanesthetized animals.^22, 23 Animals underwent the anesthetized surgery in the morning of the experiment and were then injected with drug at intervals indicated in the text without additional anesthesia. Immediately after testing, the animals were euthanized to minimize any type of distress, according to IACUC guidelines.

T1 sequence (P41145 whole entry): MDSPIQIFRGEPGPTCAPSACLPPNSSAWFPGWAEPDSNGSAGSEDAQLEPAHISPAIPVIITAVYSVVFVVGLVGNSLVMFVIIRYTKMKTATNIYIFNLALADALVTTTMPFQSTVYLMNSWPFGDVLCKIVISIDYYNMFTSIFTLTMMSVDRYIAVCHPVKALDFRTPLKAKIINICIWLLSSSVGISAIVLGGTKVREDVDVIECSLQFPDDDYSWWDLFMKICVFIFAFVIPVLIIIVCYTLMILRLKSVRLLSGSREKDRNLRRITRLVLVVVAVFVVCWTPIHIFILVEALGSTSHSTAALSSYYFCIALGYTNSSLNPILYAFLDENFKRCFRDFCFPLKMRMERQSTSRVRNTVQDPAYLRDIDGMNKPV
Sequence of MOR (P42866 whole entry): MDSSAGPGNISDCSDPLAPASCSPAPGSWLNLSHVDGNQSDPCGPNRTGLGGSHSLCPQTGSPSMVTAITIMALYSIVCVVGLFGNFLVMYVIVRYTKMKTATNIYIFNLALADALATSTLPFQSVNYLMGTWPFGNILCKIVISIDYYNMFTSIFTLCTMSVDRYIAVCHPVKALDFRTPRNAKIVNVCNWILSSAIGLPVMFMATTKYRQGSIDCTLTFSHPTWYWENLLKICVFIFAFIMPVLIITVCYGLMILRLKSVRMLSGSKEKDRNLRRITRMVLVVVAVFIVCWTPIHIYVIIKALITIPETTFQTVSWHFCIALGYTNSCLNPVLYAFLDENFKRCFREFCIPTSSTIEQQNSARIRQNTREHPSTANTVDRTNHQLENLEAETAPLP

For `COC(=O)[C@@H]1C[C@H](OC(C)=O)C(=O)[C@H]2[C@@]1(C)CC[C@H]1C(=O)O[C@H](c3ccoc3)C[C@]21C` [Salvinorin A], which “effect on colonic / GI motility” value (colonic motility [1]) is on record?
Its value is “reduced colonic motility; also recorded: can reduce GI motility”.

Which results are given for `C[C@@H](NC(=O)[C@@H](N)Cc1ccc(O)cc1)C(=O)NCC(=O)N(C)[C@@H](Cc1ccccc1)C(=O)NCCO` [DAMGO, reference compound]?
pIC50 for inhibition of EFS contractions ([2]; guinea pig ileum LMMP): 7.67±0.03; effect of nor-BNI on agonist inhibition of EFS contractions ([2]; nor-BNI 0.1 μM, 15 min pretreatment): did not significantly effect DAMGO inhibition of EFS contractions

Which “effect on GI transit” value (GI transit) does the source give for `CN(C(=O)C(c1ccccc1)c1ccccc1)[C@H](CN1CC[C@H](O)C1)c1ccccc1` [Asimadoline] here?
The value was “did not alter GI transit”.

With `O=C(NC1CCC2(O)C3Cc4ccc(O)c5c4C2(CCN3CC2CC2)C1O5)c1ccncc1` (stereo not drawn) [NAP, 17-Cyclopropylmethyl-3, 14beta-dihydroxy-4,5alpha-epoxy-6beta-(4′-pyridylcarboxamido)morphinan, reference compound] as the molecule, how does the “inhibition of morphine-induced contractions” value ([3]; 1 nM antagonist, proximal colon) read?
Its value is “neither NAP nor BNAP showed significant inhibition of morphine-induced contractions”.

And the “morphine pD2 in presence of antagonist” value ([3]; 10 nM antagonist, proximal colon (naive 6.8))?
Its value is 5.9.

What about the “further reduction of morphine pD2” value ([3]; 100 nM versus 10 nM antagonist, proximal colon) of the same molecule?
Its value is “no further reduction of the morphine pD2”.

What about the “contractions induced by compound alone” value ([3]; up to 30 μM, proximal colon preparation) of the same molecule?
Its value is “Neither BNAP nor NAP alone at concentrations up to 30 μM induced contractions”.

What about the “inhibition of morphine-induced contractions” value ([4]; 1 nM antagonist, distal colon) of the same molecule?
The value was “neither NAP nor BNAP showed significant inhibition of morphine-induced contractions”.

And the “antagonism of morphine effects” value ([4]; 10 nM antagonist, distal colon)?
The value was “neither NAP nor BNAP showed significant antagonism of morphine effects”.

What about the “morphine pD2 in presence of antagonist” value ([4]; 100 nM antagonist, distal colon (naive 6.0)) of the same molecule?
Its value is 5.3.

What about the “contractions induced by compound alone” value ([4]; up to 30 μM, distal colon preparation) of the same molecule?
Its value is “Neither BNAP nor NAP alone at concentrations up to 30 μM induced contractions”.

What about the “% max of agonist” value (MOR) of the same molecule?
The value was 22.72±0.84% and 22.7 ± 0.8%.

And the EC50 (KOR; 35S-GTP[γS])?
The EC50 was 28.8 ± 14.4 nM.

What about the “% max of agonist” value (KOR; relative to U50,488H) of the same molecule?
Its value is 45.5±4.4%.

Which “reduction of intestinal motility” value (intestinal transit) does the source give for `CN1CC[C@]23c4c5ccc(O)c4O[C@H]2[C@@H](O)C=C[C@H]3[C@H]1C5` [morphine, reference compound] here?
Its value is 3 fold.

What about the bead expulsion time (colonic motility [5]) of the same molecule?
The bead expulsion time was 75 min.

And the antinociception (morphine antinociception)?
The antinociception was “dose dependently induced antinociception”.
